In US12624004B2 (Fudan University, priority 2019, dated 2026):
Like-named read-outs stand apart in the source and are kept apart here.

Key:
μ opioid receptor = biological target: T1, μ opioid receptor (Homo sapiens, UniProt P35372); experiment: Competition binding assay on membranes of CHO cells expressing μ opioid receptor, [3H]-labeled ligand
T1 construct: expressed in transfected cells; host or cells: CHO cells (membranes)
Outline: (§1)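 CHO membranes (20–30 μg protein) incubated with [3H]-labeled ligand at 1–2 nM and test compounds, 30 min at 30° C; nonspecific binding with 1 μM corresponding ligand. Filtered on GF/C, washed with 50 mM Tris-HCl pH 7.4, scintillation-counted. IC50 converted to Ki by Ki=IC50/(1+[L]/Kd).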

κ opioid receptor = biological target: T2, κ opioid receptor (Homo sapiens, UniProt P41145); experiment: Competition binding assay on membranes of CHO cells expressing κ opioid receptor, [3H]-labeled ligand
T2 construct: expressed in transfected cells; host or cells: CHO cells (membranes)
Outline: as §1

δ opioid receptor = biological target: T3, δ opioid receptor (Homo sapiens, UniProt P41143); experiment: Competition binding assay on membranes of CHO cells expressing δ opioid receptor, [3H]-labeled ligand
T3 construct: expressed in transfected cells; host or cells: CHO cells (membranes)
Outline: as §1

[1] = Table 3-1, 1 μM concentration of compounds
[2] = Table 4-1, 1 μM concentration of compound

COc1cccc(C2(O)CCCCC2CN(C)C)c1 (stereo not drawn) [Tramadol, reference compound]
inhibition at 1 µM (μ opioid receptor; 0.5 h, Table 5-1, 1 μM concentration of compound, read-out: μOR Combination rate (%)): 6 ± 0.4%
inhibition at 10 µM (μ opioid receptor; Table 1-1, 10 μM concentration of compound, mean ± SD of three measurements, read-out: μOR Binding rate (%)): 6 ± 0.4%
inhibition at 1 µM (μ opioid receptor; Table 2-1, 1 μM concentration of compound, read-out: μOR Binding rate (%)): 6 ± 0.4%
μOR Binding rate (%) (μ opioid receptor; [1]): 6.0%
μOR Binding rate (%) (μ opioid receptor; [2]): 6.0 ± 0.4%
inhibition at 10 µM (κ opioid receptor; 0.5 h, Table 1-1, 10 μM concentration of compound, read-out: κOR Binding rate (%)): 0%
inhibition at 1 µM (κ opioid receptor; 0.5 h, Table 2-1, 1 μM concentration of compound, read-out: κOR Binding rate (%)): 0%
inhibition at 1 µM (κ opioid receptor; 0.5 h, Table 5-1, 1 μM concentration of compound, read-out: κOR Combination rate (%)): 0%
κOR Binding rate (%) (κ opioid receptor; [1]): 0%
κOR Binding rate (%) (κ opioid receptor; [2]): 0%
inhibition at 10 µM (δ opioid receptor; 0.5 h, Table 1-1, 10 μM concentration of compound, read-out: δOR Binding rate (%)): 0%
inhibition at 1 µM (δ opioid receptor; 0.5 h, Table 2-1, 1 μM concentration of compound, read-out: δOR Binding rate (%)): 0%
inhibition at 1 µM (δ opioid receptor; 0.5 h, Table 5-1, 1 μM concentration of compound, read-out: δOR Combination rate (%)): 0%
δOR Binding rate (%) (δ opioid receptor; [1]): 0%
δOR Binding rate (%) (δ opioid receptor; [2]): 0%
